Measurements published in patent publication EP0845217A1, “Inhibiting undesirable taste in oral compositions” (priority 1996, dated 1998).

Tests used:
alkaline phosphatase = alkaline phosphatase (Bos taurus, UniProt P19111); assay type: biochemical, bovine; settings: PNPP substrate
Experimental: Enzyme kinetics experiments are done using purified alkaline phosphatase from bovine intestine and the substrate para-nitrophenyl phosphate (PNPP). The formation of colored para-nitrophenol (PNP) from colorless PNPP is followed by measuring the color formation in the presence of inhibitor at several concentrations.
Specifically, enzyme reactions are done in a volume of 200 ul containing 12.5 mU/ml alkaline phosphatase, PNPP at concentrations between 0.5-200 mM, and an inhibitor at concentrations between 0-100 mM. […] Phosphoserine is the natural substrate for this enzyme. The final buffer solution is 0.9 M diethanolamine and 0.5 mM […], pH 9.8, mixed 3:1 (v:v) with water. Reactions are done in a 96-well microtiter plate. The enzyme reaction is initiated by the addition of the enzyme. Each reaction mixture is done in triplicate. The enzyme reaction is monitored by measuring the optical density (OD) at 405 nm, with a reference OD of 490 nm. The OD's are read every 30 seconds over a 15 minute period at room temperature. PNP concentration is determined based on a standard curve correlating OD405/490 vs. PNP concentration. […] The data is then transformed and plotted as the Kmapp / Vmax. vs. inhibitor concentration. From these plots the dissociation constant of the enzyme-inhibitor complex, Ki, is determined. The x-intercept on this plot equals (-Ki). […]

[1] = tested on: human taste response to bitter-tasting compounds; assay: Human taste test: paired comparisons of bitter-tasting compounds with and without VMP; assay type: in vivo; settings: inhibitor 0.3%; for Cert. (%): mean certainty score
From the text: In this test all samples contain 5% sucrose. […] Subjects rate which sample is most bitter, and also indicate on a 7 point scale the certainty of their choice. […] However, it inhibits bitterness of phenylpropanolamine and guaifenesin to a lesser degree.

[2] = tested on: purified protein tyrosine phosphatase; assay: Purified protein tyrosine phosphatase, dephosphorylation of phosphotyrosine-containing peptide substrates; assay type: biochemical; settings: experiments not described
[3] = tested on: acid phosphatase (EC 3.1.3.2) type V; assay: Acid phosphatase enzyme kinetics with PNPP substrate; assay type: biochemical, bovine
Experimental: Enzyme kinetics are done using purified acid phosphatase (EC 3.1.3.2) type V from bovine milk with PNPP as the substrate. The enzyme kinetics experiments are done similarly to the kinetics experiments for alkaline phosphatase, described above.
The buffer is 0.2 M sodium acetate buffer, pH 5.6. Reactions are done in a 96-well microtiter plate. The enzyme reaction is initiated by the addition of enzyme. The enzyme reaction is stopped by the addition of 50 ul of 3 N NaOH to each well. Reaction times are from 0-15 minutes, at 30 second intervals. As described previously, the reaction rate is determined by measurement of the formation of colored product, PNP, which correlates with OD405/490. Acid phosphatase has a linear enzyme reaction rate for 15 minutes with the concentration ranges tested. Calculation of the Ki is done as described above.

[4] = tested on: human taste response to bitter-tasting compounds; assay: Human taste test: detection threshold of bitter-tasting compounds with and without VMP; assay type: in vivo; settings: 0.3% VMP
Experimental: In the first taste test, the detection threshold for a bitter-tasting compound is determined by having subjects taste a series of solutions containing increasing concentrations of the bitter-tasting compound. None of the subjects are able to taste the bitterness in the first solution containing the lowest concentration of the bitter-tasting molecule. The subjects are instructed to indicate the first, or lowest concentration of solution that is sensed as bitter. This concentration is the detection threshold for that particular compound and subject. […] The detection threshold for the bitter-tasting compound plus inhibitor is likewise determined. All of these aqueous solutions contain 5% sucrose. […] The dilution series are in ^1/2 log increments (i.e., 1 uM, 3.2 uM, 10 uM, 32 uM). The pair of dilution series with and without inhibitor is tasted within a 2 hour time period. Subjects are blinded as to the identity of the bitter compound and whether inhibitor is present or not. The two dilution series are presented in random order. […]

[5] = acetaminophen 10.00 mM, total # responses 4
[6] = acetaminophen 32.00 mM, total # responses 5
[7] = chlorpheniramine maleate 0.100 mM, total # responses 4
[8] = chlorpheniramine maleate 1.000 mM, total # responses 4
[9] = dextromethorphan 0.320 mM, total # responses 4
[10] = guaifenesin 0.320 mM, total # responses 4
[11] = guaifenesin 3.200 mM, total # responses 4
[12] = guaifenesin 10.00 mM, total # responses 4
[13] = phenylpropanolamine HCl 3.200 mM, total # responses 5
[14] = phenylpropanolamine HCl 10.00 mM, total # responses 5
[15] = pseudoephedrine HCl 0.320 mM, total # responses 5
[16] = pseudoephedrine HCl 1.000 mM, total # responses 5
[17] = sucrose octaacetate 0.001 mM, total # responses 5
[18] = sucrose octaacetate 0.003 mM, total # responses 5

Sequence of alkaline phosphatase (P19111 20-506): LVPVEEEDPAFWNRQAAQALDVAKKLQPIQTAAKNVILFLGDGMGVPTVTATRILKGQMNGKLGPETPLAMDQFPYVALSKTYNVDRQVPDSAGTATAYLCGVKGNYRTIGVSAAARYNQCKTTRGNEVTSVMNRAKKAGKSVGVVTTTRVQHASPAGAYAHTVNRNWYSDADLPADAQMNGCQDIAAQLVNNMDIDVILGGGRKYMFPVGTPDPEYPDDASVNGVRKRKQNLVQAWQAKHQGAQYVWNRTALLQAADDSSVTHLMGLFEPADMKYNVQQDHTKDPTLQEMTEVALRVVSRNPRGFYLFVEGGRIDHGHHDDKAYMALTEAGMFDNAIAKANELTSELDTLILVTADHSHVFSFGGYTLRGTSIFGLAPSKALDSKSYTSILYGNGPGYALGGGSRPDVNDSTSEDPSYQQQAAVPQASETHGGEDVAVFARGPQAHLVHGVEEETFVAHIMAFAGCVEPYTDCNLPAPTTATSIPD

Q: What does the source list for vanillylmonophosphate [VMP]?
A: type of inhibition of alkaline phosphatase (alkaline phosphatase): competitively inhibited; Cert. (%) ([1]; acetaminophen 10.00 mM): 43%; Corr./Tot. [1, 5]: 0.50; Correct # responses [1, 5]: 2; Cert. (%) ([1]; acetaminophen 32.00 mM): 29%; Corr./Tot. [1, 6]: 0.80; Correct # responses [1, 6]: 4; Cert. (%) ([1]; chlorpheniramine maleate 0.100 mM): 54%; Corr./Tot. [1, 7]: 1.00; Correct # responses [1, 7]: 4; Cert. (%) ([1]; chlorpheniramine maleate 1.000 mM): 71%; Corr./Tot. [1, 8]: 1.00; Correct # responses [1, 8]: 4; Cert. (%) ([1]; dextromethorphan 0.320 mM): 82%; Corr./Tot. [1, 9]: 1.00; Correct # responses [1, 9]: 4; Cert. (%) ([1]; guaifenesin 0.320 mM): 14%; Corr./Tot. [1, 10]: 0.50; Correct # responses [1, 10]: 2; Cert. (%) ([1]; guaifenesin 3.200 mM): 36%; Corr./Tot. [1, 11]: 0.50; Correct # responses [1, 11]: 2; Cert. (%) ([1]; guaifenesin 10.00 mM): 57%; Corr./Tot. [1, 12]: 0.75; Correct # responses [1, 12]: 3; Cert. (%) ([1]; phenylpropanolamine HCl 3.200 mM): 11%; Corr./Tot. [1, 13]: 0.40; Correct # responses [1, 13]: 2; Cert. (%) ([1]; phenylpropanolamine HCl 10.00 mM): 49%; Corr./Tot. [1, 14]: 0.80; Correct # responses [1, 14]: 4; Cert. (%) ([1]; pseudoephedrine HCl 0.320 mM): 14%; Corr./Tot. [1, 15]: 0.60; Correct # responses [1, 15]: 3; Cert. (%) ([1]; pseudoephedrine HCl 1.000 mM): 34%; Corr./Tot. [1, 16]: 0.40; Correct # responses [1, 16]: 2; Cert. (%) ([1]; sucrose octaacetate 0.001 mM): 20%; Corr./Tot. [1, 17]: 0.20; Correct # responses [1, 17]: 1; Cert. (%) ([1]; sucrose octaacetate 0.003 mM): 23%; Corr./Tot. [1, 18]: 0.40; Correct # responses [1, 18]: 2; effect on tyrosine phosphatase activity against peptide substrates [2]: inhibits the activity; type of inhibition of acid phosphatase ([3]; PNPP substrate): competitively inhibited; Ki ([3]; PNPP substrate at room temperature, pH 5.6): 9.16 mM; # VMP did not change threshold ([4]; CPC, n 2): 1; # VMP increased threshold ([4]; CPC, n 2): 0; % Subjects that VMP increased threshold ([4]; CPC, n 2): 0.00%; # VMP did not change threshold ([4]; acetaminophen, n 5): 3; # VMP increased threshold ([4]; acetaminophen, n 5): 2; % Subjects that VMP increased threshold ([4]; acetaminophen, n 5): 40.00%; # VMP did not change threshold ([4]; caffeine, n 4): 3; # VMP increased threshold ([4]; caffeine, n 4): 0; % Subjects that VMP increased threshold ([4]; caffeine, n 4): 0.00%; # VMP did not change threshold ([4]; chlorpheniramine maleate, n 5): 0; # VMP increased threshold ([4]; chlorpheniramine maleate, n 5): 4; % Subjects that VMP increased threshold ([4]; chlorpheniramine maleate, n 5): 80.00%; # VMP did not change threshold ([4]; cimetidine, n 2): 1; # VMP increased threshold ([4]; cimetidine, n 2): 1; % Subjects that VMP increased threshold ([4]; cimetidine, n 2): 50.00%; # VMP did not change threshold ([4]; denatonium benzoate, n 4): 2; # VMP increased threshold ([4]; denatonium benzoate, n 4): 2; % Subjects that VMP increased threshold ([4]; denatonium benzoate, n 4): 50.00%; # VMP did not change threshold ([4]; dextromethorphan, n 5): 4; # VMP increased threshold ([4]; dextromethorphan, n 5): 1; % Subjects that VMP increased threshold ([4]; dextromethorphan, n 5): 20.00%; # VMP did not change threshold ([4]; domiphen bromide, n 4): 3; # VMP increased threshold ([4]; domiphen bromide, n 4): 1; % Subjects that VMP increased threshold ([4]; domiphen bromide, n 4): 25.00%; # VMP did not change threshold ([4]; doxylamine succinate, n 3): 1; # VMP increased threshold ([4]; doxylamine succinate, n 3): 2; % Subjects that VMP increased threshold ([4]; doxylamine succinate, n 3): 66.67%; # VMP did not change threshold ([4]; famotidine, n 3): 3; # VMP increased threshold ([4]; famotidine, n 3): 0; % Subjects that VMP increased threshold ([4]; famotidine, n 3): 0.00%; # VMP did not change threshold ([4]; guaifenesin, n 8): 2; # VMP increased threshold ([4]; guaifenesin, n 8): 2; % Subjects that VMP increased threshold ([4]; guaifenesin, n 8): 25.00%; # VMP did not change threshold ([4]; phenylpropanolamine, n 7): 2; # VMP increased threshold ([4]; phenylpropanolamine, n 7): 4; % Subjects that VMP increased threshold ([4]; phenylpropanolamine, n 7): 57.14%; # VMP did not change threshold ([4]; pseudoephedrine, n 5): 2; # VMP increased threshold ([4]; pseudoephedrine, n 5): 2; % Subjects that VMP increased threshold ([4]; pseudoephedrine, n 5): 40.00%; # VMP did not change threshold ([4]; ranitidine, n 3): 1; # VMP increased threshold ([4]; ranitidine, n 3): 1; % Subjects that VMP increased threshold ([4]; ranitidine, n 3): 33.33%; # VMP did not change threshold ([4]; sucrose octaacetate, n 7): 4; # VMP increased threshold ([4]; sucrose octaacetate, n 7): 1; % Subjects that VMP increased threshold ([4]; sucrose octaacetate, n 7): 14.29%
